The record followed here is US6172074A, “Imidazopyridines and oxazolopyridines” (Byk Gulden Lomberg Chemische Fabrik GmbH, priority 1996, dated 2001).

Structures can show the parent of a compound that is named as a salt.

The assay relates to PDE4. Put plainly: Inhibition of the PDE4 activity (Bauer and Schwabe method, adapted to microtiter plates). Type of assay: biochemical. The note with it: inhibitory concentration as -log IC50 (mol/l).
In the case of `COc1ccc(-c2nc3ncccc3o2)c2c1OC1(CCCC1)C2` [Compound 1, 2-(2,3-Dihydro-7-methoxybenzofuran-2-spiro-1'-cyclopentan-4-yl)oxazolo[4,5-b]pyridine], the “-log IC50” value was determined as 7.93. The result for `COc1ccc(-c2nc3cccnc3o2)c2c1OC1(CCCC1)C2` [Compound 2, 2-(2,3-Dihydro-7-methoxybenzofuran-2-spiro-1'-cyclopentan-4-yl)oxazolo[5,4-b]pyridine] reads 6.61; that for `COc1ccc(-c2nc3cnccc3o2)c2c1OC1(CCCC1)C2` [Compound 3, 2-(2,3-Dihydro-7-methoxybenzofuran-2-spiro-1'-cyclopentan-4-yl)oxazolo[4,5-c]pyridine], 8.76. For `COc1ccc(-c2nc3cnccc3[nH]2)c2c1OC1(CCCC1)C2` [Compound 4, 2-(2,3-Dihydro-7-methoxybenzofuran-2-spiro-1'-cyclopentan-4-yl)imidazolo[4,5-c]pyridin], the “-log IC50” value was determined as 8.08. The result for `COc1ccc(-c2nc3cnccc3[nH]2)c2c1OC1(CCCCC1)C2` [Compound 5, 2-(2,3-Dihydro-7-methoxybenzofuran-2-spiro-1'-cyclohexan-4-yl)imidazolo[4,5-c]pyridine] reads 7.52; that for `COc1ccc(-c2nc3ncccc3[nH]2)c2c1OC1(CCCCC1)C2` [Compound 6, 2-(2,3-Dihydro-7-methoxybenzofuran-2-spiro-1'-cyclohexan-4-yl)imidazo[4,5-b]pyridine dihydrochloride hemihydrate], 6.90.

In the case of `COc1ccc(-c2nc3c(Cl)nccc3[nH]2)c2c1OC1(CCCC1)C2` [Compound 7, 4-Chloro-2-(2,3-dihydro-7-methoxybenzofuran-2-spiro-1'-cyclopentan-4-yl)imidazo[4,5-c]pyridine], the “-log IC50” value was 7.98.
